Measurements as given in ChEMBL document CHEMBL3507680, “University of Dundee, Gates Library screen for HepG2 cell viability”.

Assay: Human HepG2 cell viability assay in 384 well format
Assay type: toxicity, cell-based
Design: dose 125 nL, time 70.5 hour; cytotoxicity at 70.5 h: concentration not given beside the values
Conditions: HepG2 cells, read-out: Inhibition

SMILES | cytotoxicity at 70.5 h
CCc1nc(C2CCCN2C(=O)c2cnc[nH]2)no1 (configuration not stated) | -7.25%
Cc1cc(NC(=O)CN(CC2CCOC2)C2CC2)no1 (configuration not stated) | 0.647%
CCc1nc(C2CCCN2C(=O)c2ccc(N3CCCC3)nn2)no1 (configuration not stated) | -3.36%
CC(C)c1noc(C(C)N2CCN(Cc3nnc(C4CC4)o3)CC2)n1 (configuration not stated) | -3.65%
Cc1nc(C2CCCN(C(=O)COCc3ccccc3)C2)no1 (configuration not stated) | -12.6%
Cc1nc(C)n(CC2CN(CCCOc3ccc(F)cc3)CCO2)n1 (configuration not stated) | -17.9%
CS(=O)(=O)c1cccc(C(=O)NCCCN2CCc3ccccc3C2)c1 | 19.1%
Cc1nc(C)n(CC2CN(CCOc3cccc(F)c3)CCO2)n1 (configuration not stated) | -9.64%
C1CN(Cc2noc(C3CC3)n2)CCN(Cc2nnc(C3CC3)o2)C1 | 15.4%
CC(Cn1cccn1)NC(=O)CCC(=O)c1cccs1 (configuration not stated) | -11.2%
Cn1ccc(C(=O)NCc2ccc(N3CCCCCC3)nc2)cc1=O | -12.5%
O=C(NCCCN1CCc2ccccc2C1)c1ccccc1Br | -7.72%
CCC(C#N)NC(=O)c1cc(Br)c2c(c1)OCCO2 (configuration not stated) | -9.18%
CNc1snc(C)c1C(=O)N1CCCC(n2ccnc2C)C1 (configuration not stated) | -4.48%
OC(CNCCn1cccn1)c1ccc(Br)cc1 (configuration not stated) | 15.8%
Cc1cn2c(n1)CCC(NC(=O)c1cc(C3CC3)[nH]n1)C2 (configuration not stated) | -4.74%
Cc1nc(C2CCCN2Cc2cc(=O)n(C)c(=O)n2C)no1 (configuration not stated) | -1.72%
Cc1nccc(C(=O)N2CCCC2c2c(C)nn(C)c2C)n1 (configuration not stated) | 16.2%
Cc1cccc(-c2nc(CN3CCCC3Cn3cc(C)cn3)no2)c1 (configuration not stated) | 6.59%
Cc1cnn(CC2CCCN2Cc2noc(C)n2)c1 (configuration not stated) | -9.78%
CN(C)CC1CN(Cc2coc(-c3cccc(F)c3)n2)CCO1 (configuration not stated) | 3.34%
COC(=O)CC(NC(=O)c1ccccc1OC)c1cccs1 (configuration not stated) | 5.97%
COc1ccc(Cl)cc1C(=O)NC(CC(=O)O)c1cccs1 (configuration not stated) | -11%
COc1ccc(Br)c(C(=O)NC(CC(=O)O)c2cccs2)c1 (configuration not stated) | -11.5%
Cc1ccc(C(=O)NCc2ccc(N3CCCC(C(N)=O)C3)cc2)o1 (configuration not stated) | -14.6%
CCOc1ccccc1C(=O)NC(CC(=O)O)c1cccs1 (configuration not stated) | -6.28%

SMILES | cytotoxicity at 70.5 h
COc1ccc(C)cc1C(=O)NC(CC(=O)O)c1cccs1 (configuration not stated) | -11.4%
Cc1cnn(C2CCCN(C(=O)c3cc(Cl)c4c(c3)OCO4)C2)c1 (configuration not stated) | 7.73%
O=C(c1ccc2c(c1)OCCCO2)N1CCCC(n2ccnc2)C1 (configuration not stated) | -8.38%
CN(C)CC1CN(Cc2coc(-c3ccc(Cl)cc3)n2)CCO1 (configuration not stated) | 12.9%
COc1cc(C(=O)NC(CC(=O)O)c2cccs2)cc(OC)c1C (configuration not stated) | -6.87%
COCCc1noc(CN2CCCC2c2c(C)nn(C)c2OC)n1 (configuration not stated) | -3.49%
CCn1cnnc1CNC(=O)N1CCC(O)CC1 | -5.8%
Cn1ccnc1CN1CCCN(C(=O)COCC2CC2)CC1 | -3.74%
O=C(CN1CCN(C(=O)c2sccc2C2CC2)CC1)NC1CC1 | 8.72%
CC(C)(C)n1cc(C(=O)N2CCN(Cc3ccsc3)CC2)cn1 | -0.132%
CC(C)c1ccc(OCCC(=O)N2CCC(CC(N)=O)CC2)cc1 | -3.31%
CC1CN(C(=O)NCCCn2cncn2)CCO1 (configuration not stated) | -1.85%
CCc1nnc2n1CCN(CC(=O)Nc1cc(C(C)(C)C)nn1C)C2 | 0.0813%
O=C(Nc1cnn(CCN2CCOCC2)c1)c1cc(F)ccc1F | -2.44%
Cc1nn(CC(=O)N2CCC(Nc3cccnn3)CC2)c(C)c1Cl | 28.5%
CS(=O)(=O)N1CCCCCC1C1CCN(c2ncccn2)CC1 (configuration not stated) | 15.3%
Cc1cnn(CCNCc2csc(-c3cccs3)n2)c1 | -4.79%
Cc1nn(C)c(C)c1CC(=O)N1CCC(Nc2cccnn2)CC1 | 35.9%
CCCSCC(=O)NS(=O)(=O)c1ccc2c(c1)OCCO2 | 2.12%
O=C(CSc1ccccc1Cl)NS(=O)(=O)c1ccc2c(c1)OCCO2 | -4.84%
CCn1c(CN2CCC(O)(C(=O)OC)CC2)nc2c(F)cccc21 | 31.2%
OC(CN1CCCCCCC1)c1ccc(F)cc1 (configuration not stated) | 3.53%
Cc1cc2n(n1)CC(CNCc1ccnc(-n3ccnc3C)c1)CN2 (configuration not stated) | 0.264%
Cc1nc(C2CCCN2C(=O)c2cnns2)no1 (configuration not stated) | -8.38%
CCn1ccnc1CN1CCN(CCOc2cccc(C#N)c2)CC1 | -5.28%
Cc1cnn(CCNCc2nc(-c3ccccc3Cl)no2)c1 | 31.1%

SMILES | cytotoxicity at 70.5 h
Cc1cc(CN2CCN(C(=O)Nc3cccnc3)CC2)on1 | -7.67%
CC(NC(=O)N(C)Cc1ccsc1)c1ccc2c(c1)CCC(=O)N2 (configuration not stated) | -3.94%
Cc1cc(CN2CCN(C(=O)NC(C)c3cccnc3)CC2)on1 (configuration not stated) | -11.7%
CC(NC(=O)N1CCCN(Cc2cccs2)CC1)c1cccnc1 (configuration not stated) | -16.5%
Cc1nc(CNCc2c(C)nn(C)c2N2CCOCC2)cs1 | -15.5%
CC(NC(=O)N(C)Cc1ccsc1)c1ccc2c(c1)NC(=O)CO2 (configuration not stated) | -9.52%
Cc1noc(C)c1CNC(=O)N1CCN(Cc2cscn2)CC1 | -5.24%
CCOc1ccccc1C(CC(=O)Nc1ccccc1F)NC(C)=O (configuration not stated) | -6.84%
Cc1cc(CNCc2c(C)nn(C)c2N2CCOCC2)no1 | -4.07%
CNS(=O)(=O)c1ccc(C(=O)N2CCCC(n3cccn3)C2)cc1 (configuration not stated) | -8.29%
CCOC(=O)CN1CCC(C(=O)c2cc(F)ccc2F)CC1 | 34.9%
Cc1nc(C)n(CC2CCCN2Cc2nc(-c3cccs3)no2)n1 (configuration not stated) | -12.2%
Cc1cnn(CCNCc2nc(Cc3ccccc3)no2)c1 | -5.53%
Cc1cc(C)n(CC2CCCN2C(=O)CCCNc2ncccn2)n1 (configuration not stated) | -0.613%
COc1cc(CNC(=O)NCc2c(C)cc(C)[nH]c2=O)ccc1C | -8.93%
Cc1nc(C2CCCN(C(=O)Cn3ccccc3=O)C2)no1 (configuration not stated) | -9.54%
Cc1cc(C)n(CC2CCCN2C(=O)CCc2cscn2)n1 (configuration not stated) | -8.27%
Cc1nc(C)n(CC2CCCN2Cc2nc(C3CC3)no2)n1 (configuration not stated) | -5.43%
COCCN1CCN(Cc2noc(C3CC3)n2)CC1C (configuration not stated) | 12.5%
Cc1cccc(OCCC(=O)N2CCN(S(=O)(=O)N(C)C)CC2)c1C | 20.1%
O=C(NCCc1ccccn1)C1=NN(c2ccccc2)C(=O)CN1 | -6.71%
CC(C)c1noc(CCCC(=O)N2CCN(Cc3ccncc3)CC2)n1 | -17.6%
Cn1cc(NS(=O)(=O)c2ccc(OC(F)(F)F)cc2)ccc1=O | 18%
Cn1ncc2c(=O)[nH]c(CN3CCCC3c3cccs3)nc21 (configuration not stated) | -10.3%
OC(COCc1ccc(Cl)cc1)CN1CCC(c2ccn[nH]2)CC1 (configuration not stated) | -1.37%
COCCNc1ccc(CNC(=O)Nc2cn[nH]c2)cc1 | -16.6%

SMILES | cytotoxicity at 70.5 h
OC(COc1ccccc1)CN1CCC(c2ccn[nH]2)CC1 (configuration not stated) | -13.1%
CCn1cnnc1C1CCN(C(=O)c2ccc(Cl)s2)CC1 | -15%
CCn1cnnc1C1CCN(C(=O)c2cc3c(s2)CCC3)CC1 | -12.3%
Cc1cccc(OCCC(=O)N2CCCN(C(N)=O)CC2)c1C | 15.3%
Cc1noc(C)c1CN1CCN(Cc2nccn2C)C(C)C1 (configuration not stated) | -11.9%
Cc1cccc(OCCC(=O)N2CCCN(CC(N)=O)CC2)c1C | -12%
Cc1cnn(CCNCC(O)COc2ccc(C#N)cc2)c1 (configuration not stated) | -5.86%
CCc1nnc2n1CCN(C(=O)c1ccc(-c3ccco3)nc1C)C2 | 10%
CN(C)c1cc2c(nn1)CCN(C(=O)C1CCc3ccccc31)C2 (configuration not stated) | 13.5%
CN(C)c1cc2c(nn1)CCN(C(=O)C1Cc3ccccc3S1)C2 (configuration not stated) | -8.43%
COc1ccc(CNC(=O)N(Cc2ccc(F)cc2F)C2CC2)cn1 | 18.5%
COc1ccc2c(c1)CN(Cc1nc3ccsc3c(=O)[nH]1)CC2 | 5.83%
Cc1cnn(CCNCC(O)COc2ccc(Cl)cc2)c1 (configuration not stated) | 2.45%
CC1CN(Cc2noc(C3CC3)n2)CCN1Cc1nccn1C (configuration not stated) | 4.66%
CCc1noc(CN2CCCN(C(N)=O)CC2)n1 | -12%
CCc1nc(CN2CCCC(NCc3cnn(C(C)(C)C)c3)C2)no1 (configuration not stated) | -12.7%
CC(C)OCCCNC(=O)CN1CCC(N2CCN(C)C2=O)CC1 | -18.5%
COCCc1noc(CN(C)C(=O)c2cccc(N3CCCC3=O)c2)n1 | -17%
CCc1nc(CN2CCCC(NCc3ccc(C(N)=O)cc3)C2)no1 (configuration not stated) | -10.1%
Cc1cnc(CN2CCOC(Cn3nc(C)nc3C)C2)cn1 (configuration not stated) | 18.6%
O=C1CC(N(C(=O)c2ccc3[nH]c4c(c3c2)CCCC4)C2CC2)C(=O)N1 (configuration not stated) | 39.1%
Clc1snnc1CN1CCCC(Cn2cncn2)C1 (configuration not stated) | 14.5%
CN(Cc1ccsc1)C(=O)Nc1ccc(S(=O)(=O)N(C)C)cc1 | 3.55%
Cc1cnc(CN(C)C2CCN(CC(=O)Nc3nncs3)C2)o1 (configuration not stated) | 17.3%
